Measurements: patent publication US11999759B2, “Boronic acid derivatives and therapeutic uses thereof” (Qpex Biopharma, Inc., priority 2016, dated 2024)

Tests used:
[1] = test system: AB1054 (OXA-23); assay: Meropenem potentiation (MPC@8), strain AB1054; format: cell-based; conditions: Acinetobacter baumannii, read-out: Meropenem MIC
[2] = test system: AB1053 (OXA-72); assay: Meropenem potentiation (MPC@8), strain AB1053; format: cell-based; conditions: Acinetobacter baumannii; strain AB1053 (OXA-72), meropenem alone
[3] = biological target: OXA-48 (Klebsiella pneumoniae, UniProt Q6XEC0); assay: Inhibition of nitrocefin cleavage by purified OXA-48; format: biochemical; conditions: nitrocefin reporter substrate; 10 min preincubation at room temperature; read-out: Ki (OXA-48, NCF)
Method in brief: (§1)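 Ki derived spectrophotometrically: after adding nitrocefin, absorbance at 490 nm recorded every 10 sec over 10 min. Each purified enzyme had first been incubated with inhibitor at several concentrations for 10 min at room temperature.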

[4] = test system: PAM1154/KPC-2 (lacked MexAB-OprM); assay: Biapenem potentiation (MPC64) in PAM1154/KPC-2; format: cell-based, Pseudomonas aeruginosa; parameters: PAM1154/KPC-2 Biapenem MPC64: unit not given here; conditions: for PAM1154/KPC-2 Biapenem MPC64: BLI potency to decrease biapenem MIC 64-fold, from 32 to 0.5 μg/ml, efflux deficient strain
Description: (§2) Efflux of BLIs from Pseudomonas aeruginosa by the MexAB-OprM efflux pump was also evaluated. The plasmid expressing the gene encoding KPC-2 was introduced into two strains of P. aeruginosa, PAM1032 and PAM1154 that overexpressed or lacked MexAB-OprM, respectively. Due to expression of KPC-2 both strains became resistant to biapenem. […] Potency of BLIs to potentiate biapenem in these strains was determined. […] The ratio of MPC64 values for each BLI in PAM1032/KPC-2 (efflux proficient) and PAM1154/KPC-2 (efflux deficient) was determined to generate the Efflux Index (EI) as shown in Table 8.

[5] = biological target: SHV-12 (Klebsiella pneumoniae, UniProt P0AD64, E235K/G234S/L31Q); assay: Inhibition of nitrocefin cleavage by purified SHV-12; format: biochemical; conditions: nitrocefin reporter substrate; 10 min preincubation at room temperature; read-out: Ki (SHV-12, NCF)
Description: (§3) Ki values of inhibition of purified class A, C and D enzymes were determined spectrophotometrically using nitrocefin as reporter substrate. Purified enzymes were mixed with various concentrations of inhibitors in reaction buffer and incubated for 10 min at room temperature. Nitrocefin was added and substrate cleavage profiles were recorded at 490 nm every 10 sec for 10 min.

[6] = biological target: IMP-1 (Serratia marcescens, UniProt P52699); assay: Inhibition of imipenem cleavage by purified IMP-1; format: biochemical; conditions: imipenem reporter substrate; 37° C.; read-out: Ki (IMP-1, IMI)
Method in brief: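 Purified enzymes preincubated with varying inhibitor concentrations for 10 min at room temperature, then imipenem added as reporter substrate. Hydrolysis followed spectrophotometrically at 294 nm every 30 s for 30 min at 37° C; Ki values derived.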

[7] = test system: PAM1032/KPC-2 (overexpressed MexAB-OprM); assay: Biapenem potentiation (MPC64) in PAM1032/KPC-2; format: cell-based, Pseudomonas aeruginosa; parameters: PAM1032/KPC-2 Biapenem MPC64: unit not given here; conditions: for PAM1032/KPC-2 Biapenem MPC64: BLI potency to decrease biapenem MIC 64-fold, from 32 to 0.5 μg/ml, efflux proficient strain
Description: as §2

[8] = biological target: VIM-1 (Pseudomonas aeruginosa, UniProt A0A0F7KYQ8); assay: Inhibition of nitrocefin cleavage by purified VIM-1; format: biochemical; conditions: nitrocefin reporter substrate; 10 min preincubation at room temperature; read-out: Ki (VIM-1, NCF)
[9] = biological target: KPC-2 (Klebsiella pneumoniae, UniProt Q9F663); assay: Inhibition of nitrocefin cleavage by purified KPC-2; format: biochemical; conditions: nitrocefin reporter substrate; 10 min preincubation at room temperature; read-out: Ki (KPC-2, NCF)
Method in brief: as §1

[10] = biological target: CTX-M-14 (Escherichia coli, UniProt Q9L5C7); assay: Inhibition of nitrocefin cleavage by purified CTX-M-14; format: biochemical; conditions: nitrocefin reporter substrate; 10 min preincubation at room temperature; read-out: Ki (CTX-M-14, NCF)
Description: as §3

[11] = biological target: OXA-23 (Acinetobacter baumannii, UniProt Q9L4P2); assay: Inhibition of nitrocefin cleavage by purified OXA-23; format: biochemical; conditions: nitrocefin reporter substrate; 10 min preincubation at room temperature; read-out: Ki (OXA-23, NCF)
Method in brief: as §1

[12] = biological target: Pa-AmpC (Pseudomonas aeruginosa, UniProt P24735); assay: biochemical; conditions: nitrocefin reporter substrate; 10 min preincubation at room temperature; read-out: Ki (Pa-AmpC, NCF)
Description: as §3

[13] = biological target: P99 (Enterobacter cloacae, UniProt P05364); assay: biochemical; conditions: nitrocefin reporter substrate; 10 min preincubation at room temperature; read-out: Ki (P99, NCF)
Description: as §3

[14] = test system: KP1005 (CTX-M-14); assay: Aztreonam potentiation (MPC@4), strain KP1005; conditions: read-out: Aztreonam MIC
[15] = test system: KP1009 (CTX-M-15); assay: Aztreonam potentiation (MPC@4), strain KP1009; conditions: read-out: Aztreonam MIC
[16] = test system: KP1010 (SHV-12); assay: Aztreonam potentiation (MPC@4), strain KP1010; conditions: read-out: Aztreonam MIC
[17] = test system: ec302 (TEM-10); assay: Aztreonam potentiation (MPC@4), strain ec302; conditions: read-out: Aztreonam MIC
[18] = test system: ec308 (SHV-5); assay: Aztreonam potentiation (MPC@4), strain ec308; conditions: read-out: Aztreonam MIC
[19] = test system: ECL1002; assay: Aztreonam potentiation (MPC@4), strain ECL1002; conditions: read-out: Aztreonam MIC
[20] = test system: KP1004 (KPC-2); assay: Aztreonam potentiation (MPC@4), strain KP1004; conditions: read-out: Aztreonam MIC
[21] = test system: EC1010 (CMY-6); assay: Aztreonam potentiation (MPC@4), strain EC1010; conditions: read-out: Aztreonam MIC
[22] = test system: KP1009 (CTX-M-15); assay: Tigemonam potentiation (MPC@4), strain KP1009; conditions: strain KP1009 (CTX-M-15), tigemonam alone
[23] = test system: KP1005 (CTX-M-14); assay: Tigemonam potentiation (MPC@4), strain KP1005; conditions: strain KP1005 (CTX-M-14), tigemonam alone
[24] = test system: EC1010 (CMY-6); assay: Tigemonam potentiation (MPC@4), strain EC1010; format: cell-based; conditions: strain EC1010 (CMY-6), tigemonam alone
[25] = test system: ec308 (SHV-5); assay: Tigemonam potentiation (MPC@4), strain ec308; format: cell-based; conditions: strain ec308 (SHV-5), tigemonam alone
[26] = test system: ec302 (TEM-10); assay: Tigemonam potentiation (MPC@4), strain ec302; format: cell-based; conditions: strain ec302 (TEM-10), tigemonam alone
[27] = test system: ECL1002; assay: Tigemonam potentiation (MPC@4), strain ECL1002; format: cell-based; conditions: strain ECL1002, tigemonam alone
[28] = test system: KP1010 (SHV-12); assay: Tigemonam potentiation (MPC@4), strain KP1010; conditions: strain KP1010 (SHV-12), tigemonam alone
[29] = test system: KP1086 (OXA-48); assay: Biapenem potentiation (MPC@1), strain KP1086; format: cell-based; conditions: strain KP1086 (OXA-48), biapenem alone
Description: (§4) Biapenem was present in the test medium at 1 Dg/mL. […] Table 4 summarizes the BLI potency of biapenem potentiation (MPC@1) for two strains overexpressing class A (KPC) and class D (OXA-48) carbapenemases. Biapenem MIC for each strain is also shown.

[30] = test system: KP1054 (VIM-1); assay: Biapenem potentiation (MPC@1), strain KP1054; format: cell-based; conditions: strain KP1054 (VIM-1), biapenem alone
[31] = test system: KP1081 (NDM-1); assay: Biapenem potentiation (MPC@1), strain KP1081; format: cell-based; conditions: strain KP1081 (NDM-1), biapenem alone
[32] = test system: KP1004 (KPC-2); assay: Biapenem potentiation (MPC@1), strain KP1004; format: cell-based; conditions: strain KP1004 (KPC-2), biapenem alone
Description: as §4

Chain of CTX-M-14 (Q9L5C7 29-291, species assumed): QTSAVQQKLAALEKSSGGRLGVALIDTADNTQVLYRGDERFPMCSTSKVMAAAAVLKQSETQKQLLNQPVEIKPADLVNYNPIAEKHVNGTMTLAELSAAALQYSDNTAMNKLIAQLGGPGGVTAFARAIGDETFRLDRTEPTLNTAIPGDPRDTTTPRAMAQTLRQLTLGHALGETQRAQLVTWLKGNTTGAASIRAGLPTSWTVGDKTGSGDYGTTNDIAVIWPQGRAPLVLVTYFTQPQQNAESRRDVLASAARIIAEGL
Chain of IMP-1 (P52699 19-246, looked up, species assumed): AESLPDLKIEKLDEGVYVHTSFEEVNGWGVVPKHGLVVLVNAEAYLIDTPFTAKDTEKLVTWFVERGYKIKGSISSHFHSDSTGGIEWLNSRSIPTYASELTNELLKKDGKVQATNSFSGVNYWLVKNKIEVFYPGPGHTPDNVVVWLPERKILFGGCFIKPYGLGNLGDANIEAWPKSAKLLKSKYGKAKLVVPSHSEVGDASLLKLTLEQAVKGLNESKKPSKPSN
Chain of SHV-12 (P0AD64 22-286 L31Q/G234S/E235K): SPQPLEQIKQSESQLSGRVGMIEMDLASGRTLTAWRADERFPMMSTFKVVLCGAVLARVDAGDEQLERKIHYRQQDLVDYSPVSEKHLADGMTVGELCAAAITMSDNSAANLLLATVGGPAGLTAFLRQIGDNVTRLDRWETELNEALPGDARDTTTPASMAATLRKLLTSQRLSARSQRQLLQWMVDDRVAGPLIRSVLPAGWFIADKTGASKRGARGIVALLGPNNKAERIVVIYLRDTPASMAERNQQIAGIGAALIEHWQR
Chain of OXA-48 (Q6XEC0 23-265, looked up): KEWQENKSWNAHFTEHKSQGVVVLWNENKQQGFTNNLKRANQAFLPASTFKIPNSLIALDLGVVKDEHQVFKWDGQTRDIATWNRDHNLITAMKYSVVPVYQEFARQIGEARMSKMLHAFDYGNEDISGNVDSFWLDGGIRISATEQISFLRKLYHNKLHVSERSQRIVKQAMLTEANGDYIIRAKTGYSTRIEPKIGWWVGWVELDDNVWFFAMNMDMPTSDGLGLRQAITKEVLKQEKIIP
Chain of P99 (P05364 21-381): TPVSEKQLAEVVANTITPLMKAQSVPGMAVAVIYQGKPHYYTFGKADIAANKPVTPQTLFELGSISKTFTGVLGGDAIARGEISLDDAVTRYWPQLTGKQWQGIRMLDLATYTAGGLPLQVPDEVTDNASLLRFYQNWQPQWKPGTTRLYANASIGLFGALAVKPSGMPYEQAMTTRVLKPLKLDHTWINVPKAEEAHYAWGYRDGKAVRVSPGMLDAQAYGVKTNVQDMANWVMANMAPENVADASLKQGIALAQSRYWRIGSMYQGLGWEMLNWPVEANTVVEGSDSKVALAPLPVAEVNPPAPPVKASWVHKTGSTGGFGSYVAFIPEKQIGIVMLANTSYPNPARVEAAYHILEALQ
Chain of Pa-AmpC (P24735 27-397): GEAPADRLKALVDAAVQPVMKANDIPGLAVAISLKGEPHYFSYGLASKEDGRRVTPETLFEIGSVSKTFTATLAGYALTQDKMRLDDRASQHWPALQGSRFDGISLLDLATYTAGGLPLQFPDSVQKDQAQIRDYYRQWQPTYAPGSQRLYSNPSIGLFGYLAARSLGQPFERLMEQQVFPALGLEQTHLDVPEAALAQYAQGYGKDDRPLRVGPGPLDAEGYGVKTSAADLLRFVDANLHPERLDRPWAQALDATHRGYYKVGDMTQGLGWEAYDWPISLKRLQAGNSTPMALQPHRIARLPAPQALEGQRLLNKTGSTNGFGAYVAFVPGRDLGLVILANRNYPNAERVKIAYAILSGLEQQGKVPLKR
Chain of KPC-2 (Q9F663 25-293 limits assumed): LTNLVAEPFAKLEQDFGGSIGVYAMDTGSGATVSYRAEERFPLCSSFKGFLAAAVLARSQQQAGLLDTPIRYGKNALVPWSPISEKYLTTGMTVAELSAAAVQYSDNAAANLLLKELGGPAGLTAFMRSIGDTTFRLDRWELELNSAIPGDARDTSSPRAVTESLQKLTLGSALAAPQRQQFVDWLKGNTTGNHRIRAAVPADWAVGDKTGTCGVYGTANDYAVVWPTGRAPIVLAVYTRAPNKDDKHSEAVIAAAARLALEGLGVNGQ
Chain of OXA-23 (Q9L4P2 18-273): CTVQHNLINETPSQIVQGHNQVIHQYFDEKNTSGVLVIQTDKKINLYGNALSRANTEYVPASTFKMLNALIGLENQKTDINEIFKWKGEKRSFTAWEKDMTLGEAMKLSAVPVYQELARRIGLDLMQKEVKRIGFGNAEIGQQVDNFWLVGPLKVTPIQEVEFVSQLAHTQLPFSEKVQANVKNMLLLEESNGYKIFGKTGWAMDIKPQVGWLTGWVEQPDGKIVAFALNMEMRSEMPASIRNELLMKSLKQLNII

SMILES: C[C@@H](O)[C@H]1C(=O)N2C(C(=O)O)=C(S[C@@H]3CN[C@H](C(=O)N(C)C)C3)[C@H](C)[C@H]12 [Meropenem]
- MIC [1]: 32 µg/mL
- MIC [2]: > 64 µg/mL

SMILES: O=C(O)c1c(F)ccc2c1OB(O)[C@@H]1C[C@H]21 [Compound 13, (1aR,7bS)-5-fluoro-2-hydroxy-1a,7b-dihydro-1H-cyclopropa[c][1,2]benzoxaborinine-4-carboxylic acid]
- Ki [3]: < 100 nM
- PAM1154/KPC-2 Biapenem MPC64 [4]: 2.5
- Ki [5]: < 100 nM
- Ki [6]: 100 to 1000 nM
- PAM1032/KPC-2 Biapenem MPC64 [7]: 2.5
- Ki [8]: < 100 nM
- Ki [9]: < 100 nM
- Ki [10]: < 100 nM
- Ki [11]: < 100 nM
- Ki [12]: < 100 nM
- Ki [13]: < 100 nM

SMILES: C[C@H]1[C@H](NC(=O)/C(=N\OC(C)(C)C(=O)O)c2csc(N)n2)C(=O)N1S(=O)(=O)O [Aztreonam]
- MIC [14]: > 128 µg/mL
- MIC [15]: > 128 µg/mL
- MIC [16]: 64 µg/mL
- MIC [17]: 128 µg/mL
- MIC [18]: > 128 µg/mL
- MIC [19]: 64 µg/mL
- MIC [20]: > 128 µg/mL
- MIC [21]: > 128 µg/mL

SMILES: O=C(O)c1c(F)ccc2c1OB(O)[C@H]1C[C@@H]21 [Compound 12, (1aS,7bR)-5-fluoro-2-hydroxy-1a,7b-dihydro-1H-cyclopropa[c][1,2]benzoxaborinine-4-carboxylic acid]
- Ki [3]: < 100 nM
- PAM1154/KPC-2 Biapenem MPC64 [4]: 1.25
- Ki [5]: < 100 nM
- Ki [6]: > 1000 nM
- PAM1032/KPC-2 Biapenem MPC64 [7]: 2.5
- Ki [8]: > 1000 nM
- Ki [9]: < 100 nM
- Ki [10]: < 100 nM
- Ki [11]: < 100 nM
- Ki [12]: 100 to 1000 nM
- Ki [13]: < 100 nM

SMILES: CC1(C)[C@H](NC(=O)/C(=N\OCC(=O)O)c2csc(N)n2)C(=O)N1OS(=O)(=O)O [Tigemonam]
- Tigemonam MIC [22]: >64 µg/mL
- Tigemonam MIC [23]: >64 µg/mL
- Tigemonam MIC [24]: 16 µg/mL
- Tigemonam MIC [25]: >64 µg/mL
- Tigemonam MIC [26]: >64 µg/mL
- Tigemonam MIC [27]: 32 µg/mL
- Tigemonam MIC [28]: >64 µg/mL

SMILES: C[C@@H](O)[C@H]1C(=O)N2C(C(=O)[O-])=C(SC3Cn4cnc[n+]4C3)[C@H](C)[C@H]12 (stereo partly drawn) [Biapenem]
- MIC ([4]; Pseudomonas aeruginosa, PAM1154/KPC-2, biapenem alone): 32 µg/mL
- MIC [29]: 16 µg/mL
- MIC ([7]; Pseudomonas aeruginosa, PAM1032/KPC-2, biapenem alone): 32 µg/mL
- MIC [30]: 16 µg/mL
- MIC [31]: 16 µg/mL
- MIC [32]: 32 µg/mL
